The values below are quoted from earlier work in article PMC6264278, “Corydaline Inhibits Multiple Cytochrome P450 and UDP-Glucuronosyltransferase Enzyme Activities in Human Liver Microsomes” (Molecules, 2011).

One series concerns CYP2D6. Also noted: method as in PMID 21425377, PMID 14570772. The following applies: read-out: IC50, inhibitory effect on CYP2D6 activity; cited from earlier work.
In the next series the test system is UGT1A9. Also noted: method as in PMID 21245288. The settings on record: read-out: Ki, UGT1A9 inhibition; cited from earlier work.
Another series concerns CYP2C9. The following applies: read-out: IC50, CYP2C9 inhibition; cited from earlier work.

As to `COc1ccc2cc3[n+](cc2c1OC)CCc1cc2c(cc1-3)OCO2` [berberine], the IC50 (commonly the concentration needed to halve the response being measured) with CYP2D6 is 49.4 µM.

`O=C(O)c1cccnc1Nc1cccc(C(F)(F)F)c1` [niflumic acid]: the Ki – broadly, the dissociation constant of the complex between target and ligand, obtained from inhibition or displacement – in the series with UGT1A9 is 100 to 400 nM.

Consider `COc1cc2c(cc1OC)-c1cc3ccc(OC)c(OC)c3c[n+]1CC2` [palmatine], for which, in the series on CYP2D6, the IC50 was 92.6 µM.

On to `Nc1ccc(S(=O)(=O)Nc2ccnn2-c2ccccc2)cc1` [sulfaphenazole], for which the IC50 with CYP2C9 was […].
